Test results: US8445674B2, “Heterocyclyl compounds” (Hoffmann-La Roche Inc, priority 2009, dated 2013)

What follows are molecules tested against T1, human chemokine receptor 2 isoform B (Homo sapiens, UniProt P41597) (assay: Calcium mobilization assay (FLIPR, antagonist activity against MCP-1)). Settings: Ca mobilisation assay, CHOK1-CCR2B-A5 cells, inhibition of calcium increase induced by 20 nM MCP-1.
T1 construct: host or cells: CHOK1-CCR2B-A5 cells (CHO-K1)
T1 sequence (P41597 1-360 isoform P41597-2): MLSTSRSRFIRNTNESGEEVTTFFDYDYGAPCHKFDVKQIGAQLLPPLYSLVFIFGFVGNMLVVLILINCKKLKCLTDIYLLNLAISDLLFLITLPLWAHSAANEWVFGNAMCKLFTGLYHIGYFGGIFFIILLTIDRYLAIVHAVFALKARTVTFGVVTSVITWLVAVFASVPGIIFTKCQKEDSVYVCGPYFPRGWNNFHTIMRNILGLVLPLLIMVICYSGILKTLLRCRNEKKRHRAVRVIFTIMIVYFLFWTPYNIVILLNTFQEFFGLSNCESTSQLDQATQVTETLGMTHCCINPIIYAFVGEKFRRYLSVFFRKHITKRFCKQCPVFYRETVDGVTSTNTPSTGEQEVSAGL
Type: cell-based
In short: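 CHOK1 cells stably overexpressing human CCR2B, loaded with 4 μM Fluo-4 for 2 h at 30° C, compounds added and agonist signal read by FLIPR for 80 s. After 20-30 min at 30° C, 20 nM MCP-1 was added and fluorescence read again. IC50 is 50% inhibition of specific calcium increase (max minus basal).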
An IC50 of 1.14 µM was found for C[C@H]1C(=O)N(CCC(C)(C)C(=O)N2CCC3(CC3)[C@H](O)C2)CCN1C(=O)Nc1ccc(C(F)(F)F)c(Cl)c1 [Example 50, (S)-4-[4-((S)-4-Hydroxy-6-aza-spiro[2.5]oct-6-yl)-3,3-dimethyl-4-oxo-butyl]-2-methyl-3-oxo-piperazine-1-carboxylic acid (3-chloro-4-trifluoromethyl-phenyl)-amide] in this work. An IC50 of 0.965 µM was found for “(S)-4-[4-((S)-4-Hydroxy-6-aza-spiro[2.5]oct-6-yl)-4-oxo-butyl]-2-methyl-3-oxo-piperazine-1-carboxylic acid (3-chloro-phenyl)-amide [Example 39]” in this work. An IC50 of 0.216 µM was found for COC(=O)[C@H](CCC(=O)N1CCC2(CC2)[C@H](O)C1)N1CCN(C(=O)Nc2ccc(OC(F)(F)F)c(Cl)c2)[C@@H](C)C1=O [Example 54, (S)-2-[(S)-4-(3-Chloro-4-trifluoromethoxy-phenylcarbamoyl)-3-methyl-2-oxo-piperazin-1-yl]-5-((S)-4-hydroxy-6-aza-spiro[2.5]oct-6-yl)-5-oxo-pentanoic acid methyl ester] in this work. An IC50 of 0.0035 µM was found for C[C@H]1C(=O)N(CCCC(=O)N2CCC3(CC3)[C@H](O)C2)[C@H](C(N)=O)CN1C(=O)Nc1ccc(C(F)(F)F)c(Cl)c1 [Example 147, (3S,6S)—N1-(3-chloro-4-(trifluoromethyl)phenyl)-4-(4-((S)-4-hydroxy-6-azaspiro[2.5]octan-6-yl)-4-oxobutyl)-6-methyl-5-oxopiperazine-1,3-dicarboxamide] in this work. An IC50 of 0.0512 µM was found for O=C(/C=C/c1ccc(Cl)c(Cl)c1)N1CCC(=O)N(CCC(=O)N2CCC(O)(c3ccncc3)CC2)CC1 [Example 78, 1-[(E)-3-(3,4-Dichloro-phenyl)-acryloyl]-4-[3-(4-hydroxy-3,4,5,6-tetrahydro-2H-[4,4′]bipyridinyl-1-yl)-3-oxo-propyl)-[1,4]diazepan-5-one] in this work. An IC50 of 1.32 µM was found for CNC(=O)[C@H](CCC(=O)N1CCC2(CC2)[C@H](O)C1)N1CCN(C(=O)Nc2ccc(C(F)(F)F)c(Cl)c2)[C@@H](C)C1=O [Example 142, (S)-4-[(S)-4-((S)-4-Hydroxy-6-aza-spiro[2.5]oct-6-yl)-1-methylcarbamoyl-4-oxo-butyl]-2-methyl-3-oxo-piperazine-1-carboxylic acid (3-chloro-4-trifluoromethyl-phenyl)-amide] in this work. An IC50 of 0.0044 µM was found for C[C@H]1C(=O)N(CCCC(=O)N2CCC3(CC3)[C@H](O)C2)CCN1C(=O)Nc1ccc(C(F)(F)F)c(Cl)c1 [Example 33, (S)-4-[4-((S)-4-Hydroxy-6-aza-spiro[2.5]oct-6-yl)-4-oxo-butyl]-2-methyl-3-oxo-piperazine-1-carboxylic acid (3-chloro-4-trifluoromethyl-phenyl)-amide] in this work. An IC50 of 0.0076 µM was found for C[C@H]1C(=O)N(CC(O)CC(=O)N2CCC3(CC3)[C@H](O)C2)CCN1C(=O)Nc1ccc(Cl)c(Cl)c1 (stereo partly drawn) [Example 40, (S)-4-[(R,S)-2-Hydroxy-4-((S)-4-hydroxy-6-aza-spiro[2.5]oct-6-yl)-4-oxo-butyl]-2-methyl-3-oxo-piperazine-1-carboxylic acid (3,4-dichloro-phenyl)-amide] in this work. An IC50 of 0.146 µM was found for O=C(/C=C/c1ccc(Cl)c(Cl)c1)N1CCC(=O)N(CCC(=O)N2CCC(c3cc[nH]n3)CC2)CC1 [Example 91, 1-[(E)-3-(3,4-Dichloro-phenyl)-acryloyl]-4-{3-oxo-3-[4-(1H-pyrazol-3-yl)-piperidin-1-yl]-propyl}-[1,4]diazepan-5-one] in this work. An IC50 of 1.7 µM was found for O=C(/C=C/c1ccc(Cl)c(Cl)c1)N1CCC(=O)N(CC(=O)N2CCC3(CCCO3)CC2)CC1 [Example 98, 1-[(E)-3-(3,4-Dichloro-phenyl)-acryloyl]-4-[2-(1-oxa-8-aza-spiro[4.5]dec-8-yl)-2-oxo-ethyl]-[1,4]diazepan-5-one] in this work. An IC50 of 2.57 µM was found for C[C@H]1C(=O)N([C@H](CO)CCC(=O)N2CCC3(CC3)[C@H](O)C2)CCN1C(=O)N(C)c1ccc(OC(F)(F)F)c(Cl)c1 [Example 57, (S)-4-[(S)-4-((S)-4-Hydroxy-6-aza-spiro[2.5]oct-6-yl)-1-hydroxymethyl-4-oxo-butyl]-2-methyl-3-oxo-piperazine-1-carboxylic acid (3-chloro-4-trifluoromethoxy-phenyl)-methyl-amide] in this work. An IC50 of 0.952 µM was found for O=C(/C=C/c1ccc(Cl)c(Cl)c1)N1CCC(=O)N(CCC(=O)N2CCC(N3CCNC3=O)CC2)CC1 [Example 92, 1-[(E)-3-(3,4-Dichloro-phenyl)-acryloyl]-4-{3-oxo-3-[4-(2-oxo-imidazolidin-1-yl)-piperidin-1-yl]-propyl}-[1,4]diazepan-5-one] in this work. An IC50 of 0.0176 µM was found for O=C1CCN(C(=O)Nc2ccc(C(F)(F)F)c(Cl)c2)CCN1CCCC(=O)N1CCC2(CC2)[C@H](O)C1 [Example 119, 4-[4-((S)-4-Hydroxy-6-aza-spiro[2.5]oct-6-yl)-4-oxo-butyl]-5-oxo-[1,4] diazepane-1-carboxylic acid (3-chloro-4-trifluoromethyl-phenyl)-amide] in this work. An IC50 of 0.61 µM was found for C[C@@H]1CN(CCCC(=O)N2CCC3(CC3)[C@H](O)C2)C(=O)C=CN1c1ccc(C(F)(F)F)c(Cl)c1 [Example 65, (R)-1-(3-Chloro-4-trifluoromethyl-phenyl)-4-[4-((S)-4-hydroxy-6-aza-spiro[2.5]oct-6-yl)-4-oxo-butyl]-2-methyl-1,2,3,4-tetrahydro-[1,4]diazepin-5-one] in this work. An IC50 of 0.411 µM was found for CC1(O)CCCN(C(=O)CN2CCN(C(=O)/C=C/c3ccc(Cl)c(Cl)c3)CCC2=O)C1 (racemic) [Example 100, (rac)-1-[(E)-3-(3,4-Dichloro-phenyl)-acryloyl]-4-[2-(3-hydroxy-3-methyl-piperidin-1-yl)-2-oxo-ethyl]-[1,4]diazepan-5-one] in this work. An IC50 of 0.152 µM was found for C[C@@H]1CN(CCC(=O)N2CCC(C)(O)CC2)C(=O)CCN1C(=O)/C=C/c1cccc(Cl)c1 [Example 102, (R)-1-[(E)-3-(3-Chloro-phenyl)-acryloyl]-4-[3-(4-hydroxy-4-methyl-piperidin-1-yl)-3-oxo-propyl]-2-methyl-[1,4]diazepan-5-one] in this work. An IC50 of 0.31 µM was found for COC[C@H](CCC(=O)N1CCC2(CC2)[C@H](O)C1)N1CCN(c2ccc(C(F)(F)F)c(Cl)c2)[C@@H](C)C1=O [Example 132, (S)-4-(3-Chloro-4-trifluoromethyl-phenyl)-1-[(S)-4-((S)-4-hydroxy-6-aza-spiro[2.5]oct-6-yl)-1-methoxymethyl-4-oxo-butyl]-3-methyl-piperazin-2-one] in this work. An IC50 of 1.8 µM was found for NC(=O)C1CCN(C(=O)CCN2CCN(C(=O)/C=C/c3ccc(Cl)c(Cl)c3)CCC2=O)CC1 [Example 94, 1-(3-{4-[(E)-3-(3,4-Dichloro-phenyl)-acryloyl]-7-oxo-[1,4]diazepan-1-yl}-propionyl)-piperidine-4-carboxylic acid amide] in this work. An IC50 of 0.005 µM was found for C[C@H]1C(=O)N(CCCC(=O)N2CCC3(CC3)[C@H](O)C2)CCN1c1ccc(C(F)(F)F)c(Cl)c1 [Example 60, (S)-4-(3-chloro-4-trifluoromethyl-phenyl)-1-[4-((S)-4-hydroxy-6-aza-spiro[2.5]oct-6-yl)-4-oxo-butyl]-3-methyl-piperazin-2-one] in this work. An IC50 of 1.68 µM was found for CC1(CO)CCCN1C(=O)CCN1CCN(C(=O)/C=C/c2ccc(Cl)c(Cl)c2)CCC1=O (racemic) [Example 81, (rac)-1-[(E)-3-(3,4-Dichloro-phenyl)-acryloyl]-4-[3-(2-hydroxymethyl-2-methyl-pyrrolidin-1-yl)-3-oxo-propyl]-[1,4]diazepan-5-one] in this work. An IC50 of 0.971 µM was found for O=C(/C=C/c1ccc(Cl)c(Cl)c1)N1CCC(=O)N(CCC(=O)N2CCC(O)(c3ccccn3)CC2)CC1 [Example 76, 1-[(E)-3-(3,4-Dichloro-phenyl)-acryloyl]-4-[3-(4'-hydroxy-3′,4′,5′,6′-tetrahydro-2′H-[2,4′]bipyridinyl-1′-yl)-3-oxo-propyl]-[1,4]diazepan-5-one] in this work. An IC50 of 0.0368 µM was found for C[C@H]1C(=O)N(CCCC(=O)N2CCC3(CC3)[C@H](O)C2)CCN1c1ccc(C(F)(F)F)c(C(F)(F)F)c1 [Example 130, (S)-4-(3,4-Bis-trifluoromethyl-phenyl)-1-[4-((S)-4-hydroxy-6-aza-spiro[2.5]oct-6-yl)-4-oxo-butyl]-3-methyl-piperazin-2-one] in this work. An IC50 of 0.481 µM was found for O=C(/C=C/c1ccc(Cl)c(Cl)c1)N1CCC(=O)N(CCC(=O)N2CCC(CO)CC2)CC1 [Example 69, 1-[(E)-3-(3,4-Dichloro-phenyl)-acryloyl]-4-[3-(4-hydroxymethyl-piperidin-1-yl)-3-oxo-propyl]-[1,4]diazepan-5-one] in this work. An IC50 of 0.0017 µM was found for C[C@H]1C(=O)N(CCCC(=O)N2CCC3(CC3)[C@H](O)C2)CCN1C(=O)Nc1ccc(OC(F)(F)F)c(Cl)c1 [Example 34, (S)-4-[4-((S)-4-Hydroxy-6-aza-spiro[2.5]oct-6-yl)-4-oxo-butyl]-2-methyl-3-oxo-piperazine-1-carboxylic acid (3-chloro-4-trifluoromethoxy-phenyl)-amide] in this work. An IC50 of 0.0517 µM was found for O=C1CCN(C(=O)Nc2ccc(Cl)c(C(F)(F)F)c2)CCN1CCCC(=O)N1CCC2(CC2)[C@H](O)C1 [Example 118, 4-[4-((S)-4-Hydroxy-6-aza-spiro[2.5]oct-6-yl)-4-oxo-butyl]-5-oxo-[1,4] diazepane-1-carboxylic acid (4-chloro-3-trifluoromethyl-phenyl)-amide] in this work. An IC50 of 0.0479 µM was found for CC(C)(C)C1(O)CCN(C(=O)CCN2CCN(C(=O)/C=C/c3ccc(Cl)c(Cl)c3)CCC2=O)CC1 [Example 84, 4-[3-(4-tert-Butyl-4-hydroxy-piperidin-1-yl)-3-oxo-propyl]-1-[(E)-3-(3,4-dichloro-phenyl)-acryloyl]-[1,4]diazepan-5-one] in this work.
